Structures can show the parent of a compound that is named as a salt.

The target of the assay is T1, human recombinant HPK1 (Homo sapiens, UniProt Q92918).
T1 construct: purchased BPS Bioscience
The assay is described as follows: Inhibitory activity against human recombinant HPK1 (TR-FRET). In kind it is biochemical. As to conditions: ULight-p70S6K peptide, ATP at Km, room temperature, 1 hour, 0.32 to 1000 nM compound. The method, then:
Test Example: Evaluation of Inhibitory Activity Against Human Recombinant HPK1
The inhibitory activity against human recombinant HPK1 was evaluated using the Time-Resolved Fluorescence Resonance Energy Transfer (TR-FRET) technology of Perkin-Elmer. The test compound was prepared as a 20 mM stock solution with dimethyl sulfoxide (DMSO), serially diluted in a buffer solution, and used at final compound concentrations of 0.32 to 1000 nM. The evaluation of inhibitory activity was carried out at room temperature, using recombinant human HPK1 (BPS Bioscience). Briefly, recombinant human HPK1, serially diluted each test compound, ULight-p70S6K peptide substrate (PerkinElmer), and ATP at each concentration (Km and final concentration) were added to a kinase buffer solution (50 mM HEPES pH 7.4, 10 mM MgCl2, 1 mM EGTA, 3 mM MnCl2, 2 mM DTT, and 0.01% Tween-20). The resulting mixture was added to each well of a 384-well plate (Optiplate™ 384, white, PerkinElmer). The enzyme reaction was carried out at room temperature for 1 hour. After the reaction was suspended by adding 4 μL of a stop solution (10 mM EDTA) thereto, the mixture was stirred for 1 minute and then a detection solution containing Europium-labeled anti-phosphopeptide antibody (final concentration: 2 nM, PerkinElmer) was added thereto. The signals of TR-FRET at excitation wavelength (320 nm) and emission wavelength (665 nm) were detected using a microplate reader (Envision Multilabel Reader, Perkin-Elmer). Inhibition by the test compound was measured as % inhibition in the signals, compared to the control group treated with DMSO only. The IC50 value of each compound was calculated using the GraphPad Prism program (GraphPad Software, Inc., San Diego, CA, USA). The IC50 values of test compounds for inhibitory activity against HPK1 were classified as follows: • A: IC50≤10 nM • B: 10 nM<IC50≤50 nM • C: 50 nM<IC50≤100 nM • D: IC50>100 nM

T1 sequence (Q92918 whole entry): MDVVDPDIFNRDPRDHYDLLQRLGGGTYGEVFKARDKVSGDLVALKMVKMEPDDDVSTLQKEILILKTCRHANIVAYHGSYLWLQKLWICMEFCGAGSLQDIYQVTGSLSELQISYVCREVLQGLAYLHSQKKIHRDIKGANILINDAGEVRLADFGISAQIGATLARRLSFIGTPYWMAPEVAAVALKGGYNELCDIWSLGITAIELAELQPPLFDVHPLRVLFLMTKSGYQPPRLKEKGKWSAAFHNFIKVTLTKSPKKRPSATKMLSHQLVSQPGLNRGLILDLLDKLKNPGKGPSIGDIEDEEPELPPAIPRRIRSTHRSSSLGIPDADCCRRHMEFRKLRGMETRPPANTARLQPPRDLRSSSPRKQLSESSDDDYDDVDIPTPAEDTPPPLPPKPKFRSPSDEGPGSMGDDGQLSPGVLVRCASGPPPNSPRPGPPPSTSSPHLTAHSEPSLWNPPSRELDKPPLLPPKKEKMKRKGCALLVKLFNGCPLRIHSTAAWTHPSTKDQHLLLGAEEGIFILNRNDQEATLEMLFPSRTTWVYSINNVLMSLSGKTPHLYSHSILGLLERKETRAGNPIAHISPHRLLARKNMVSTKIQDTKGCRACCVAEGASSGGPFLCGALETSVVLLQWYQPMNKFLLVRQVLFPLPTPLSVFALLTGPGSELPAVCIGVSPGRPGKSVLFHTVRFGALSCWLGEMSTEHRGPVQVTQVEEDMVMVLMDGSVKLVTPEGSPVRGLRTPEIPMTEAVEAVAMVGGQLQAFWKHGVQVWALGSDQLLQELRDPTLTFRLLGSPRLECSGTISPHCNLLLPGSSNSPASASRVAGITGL

Broadly, the IC50 is the concentration needed to halve the response being measured. Turning to `COc1cccc(F)c1-c1nccc(Nc2cc(N3CCC[C@H](O)C3)c(-c3cnn(CC(F)(F)F)c3)cn2)n1` [Example 16, (S)-1-(2-((2-(2-fluoro-6-methoxyphenyl)pyrimidin-4-yl)amino)-5-(1-(2,2,2-trifluoroethyl)-1H-pyrazol-4-yl)pyridin-4-yl)piperidin-3-ol], the IC50 was no more than 10 nM. In the case of “2-(2-fluoro-6-methoxyphenyl)-N-(4-(2-methyl-2,8-diazaspiro[4.5]decan-8-yl)-5-(1-(2,2,2-trifluoroethyl)-1H-pyrazol-4-yl)pyridin-2-yl)pyrimidin-4-amine [Example 136]” it was no more than 10 nM; in that of `COc1cc(C(=O)N2CC[C@H](F)C2)cc(F)c1-c1nccc(Nc2cc(N3CCC[C@H](O)C3)c(-c3cnn(C(F)F)c3)cn2)n1` [Example 232, (4-(4-((5-(1-(difluoromethyl)-1H-pyrazol-4-yl)-4-((S)-3-hydroxypiperidin-1-yl)pyridin-2-yl)amino)pyrimidin-2-yl)-3-fluoro-5-methoxyphenyl)((S)-3-fluoropyrrolidin-1-yl)methanone], no more than 10 nM; in that of `COc1cccc(F)c1-c1nccc(Nc2cc(N3CCC(CCN(C)C)CC3)c(-c3cnn(C(F)F)c3)cn2)n1` [Example 147, N-(5-(1-(difluoromethyl)-1H-pyrazol-4-yl)-4-(4-(2-(dimethylamino)ethyl)piperidin-1-yl)pyridin-2-yl)-2-(2-fluoro-6-methoxyphenyl)pyrimidin-4-amine], no more than 10 nM. In the case of `COc1cccc(F)c1-c1nccc(Nc2cc(N3C[C@@H](N)C[C@H](O)C3)c(-c3cnn(C(F)F)c3)cn2)n1` [Example 306, (3S,5S)-5-amino-1-(5-(1-(difluoromethyl)-1H-pyrazol-4-yl)-2-((2-(2-fluoro-6-methoxyphenyl)pyrimidin-4-yl)amino)pyridin-4-yl)piperidin-3-ol hydrochloride] it was no more than 10 nM. The result for `COc1cccc(F)c1-c1nccc(Nc2cc(N3CCC4(CCNCC4)C3)c(-c3cnn(C4CCOCC4)c3)cn2)n1` [Example 93, N-(4-(2,8-diazaspiro[4.5]decan-2-yl)-5-(1-(tetrahydro-2H-pyran-4-yl)-1H-pyrazol-4-yl)pyridin-2-yl)-2-(2-fluoro-6-methoxyphenyl)pyrimidin-4-amine hydrochloride] reads 10 to 50 nM; that for `COc1cc(F)cc(F)c1-c1nccc(Nc2cc(N3CCC[C@H](N)C3)c(C#CC(C)(C)O)cn2)n1` [Example 313, (S)-4-(4-(3-aminopiperidin-1-yl)-6-((2-(2,4-difluoro-6-methoxyphenyl)pyrimidin-4-yl)amino)pyridin-3-yl)-2-methylbut-3-yn-2-ol], no more than 10 nM. In the case of `COc1cccc(F)c1-c1nccc(Nc2cc(N3CCC(N(C)C)C3)c(-c3cnn(C4CCOCC4)c3)cn2)n1` (stereo not shown) [Example 44, N-(4-(3-(dimethylamino)pyrrolidin-1-yl)-5-(1-(tetrahydro-2H-pyran-4-yl)-1H-pyrazol-4-yl)pyridin-2-yl)-2-(2-fluoro-6-methoxyphenyl)pyrimidin-4-amine], the IC50 was 10 to 50 nM. The result for `COc1cccc(F)c1-c1nccc(Nc2cc(N3CCC[C@H](N)C3)c(-c3cnn(CC(=O)N(C)C)c3)cn2)n1` [Example 132, (S)-2-(4-(4-(3-aminopiperidin-1-yl)-6-((2-(2-fluoro-6-methoxyphenyl)pyrimidin-4-yl)amino)pyridin-3-yl)-1H-pyrazol-1-yl)-N,N-dimethylacetamide hydrochloride] reads no more than 10 nM; that for `COc1cc(C(=O)N(C)C)cc(F)c1-c1nccc(Nc2cc(N3CCC[C@H](N)C3)c(-c3cnn(C(F)F)c3)cn2)n1` [Example 187, (S)-4-(4-((4-(3-aminopiperidin-1-yl)-5-(1-(difluoromethyl)-1H-pyrazol-4-yl)pyridin-2-yl)amino)pyrimidin-2-yl)-3-fluoro-5-methoxy-N,N-dimethylbenzamide hydrochloride], no more than 10 nM; that for `COc1cccc(F)c1-c1nccc(Nc2cc(N3CCC[C@H](O)C3)c(-c3cnn(CC4CC4)c3)cn2)n1` [Example 17, (S)-1-(5-(1-(cyclopropylmethyl)-1H-pyrazol-4-yl)-2-((2-(2-fluoro-6-methoxyphenyl)pyrimidin-4-yl)amino)pyridin-4-yl)piperidin-3-ol], no more than 10 nM.

For the molecule `COc1cccc(F)c1-c1nccc(Nc2cc(N3CCN(C)CC3)c(-c3cnn(C4CCOCC4)c3)cn2)n1` [Example 68, 2-(2-fluoro-6-methoxyphenyl)-N-(4-(4-methylpiperazin-1-yl)-5-(1-(tetrahydro-2H-pyran-4-yl)-1H-pyrazol-4-yl)pyridin-2-yl)pyrimidin-4-amine], the 50% inhibitory concentration (IC50) fell in the range of 10 to 50 nM.

Take `COc1cccc(F)c1-c1nccc(Nc2cc(N3CC[C@H](N)C3)c(-c3cnn(C4CCOCC4)c3)cn2)n1` [Example 97, (S)-N-(4-(3-aminopyrrolidin-1-yl)-5-(1-(tetrahydro-2H-pyran-4-yl)-1H-pyrazol-4-yl)pyridin-2-yl)-2-(2-fluoro-6-methoxyphenyl)pyrimidin-4-amine hydrochloride]: the concentration for half-maximal inhibition (IC50) was no more than 10 nM. In the case of `COc1cccc(F)c1-c1nccc(Nc2cc(N3CCC[C@H](N)C3)c(-c3ccc(OCCN(C)C)nc3)cn2)n1` [Example 249, (S)-4-(3-aminopiperidin-1-yl)-6′-(2-(dimethylamino)ethoxy)-N-(2-(2-fluoro-6-methoxyphenyl)pyrimidin-4-yl)-[3,3′-bipyridin]-6-amine hydrochloride] it was no more than 10 nM; in that of `COc1cccc(F)c1-c1nccc(Nc2cc(N3CCCC(C(N)=O)C3)c(-c3cnn(C4CCOCC4)c3)cn2)n1` (stereo not shown) [Example 34, 1-(2-((2-(2-fluoro-6-methoxyphenyl)pyrimidin-4-yl)amino)-5-(1-(tetrahydro-2H-pyran-4-yl)-1H-pyrazol-4-yl)pyridin-4-yl)piperidin-3-carboxamide], 10 to 50 nM; in that of `COc1cc(CO)cc(F)c1-c1nccc(Nc2cc(N3CCC[C@H](O)C3)c(-c3cnn(C4CCOCC4)c3)cn2)n1` [Example 161, (S)-1-(2-((2-(2-fluoro-4-(hydroxymethyl)-6-methoxyphenyl)pyrimidin-4-yl)amino)-5-(1-(tetrahydro-2H-pyran-4-yl)-1H-pyrazol-4-yl)pyridin-4-yl)piperidin-3-ol], no more than 10 nM. In the case of `COc1cccc(F)c1-c1nccc(Nc2cc(N3CCC[C@H](N)C3)c(-c3ccc(F)c(C(F)(F)F)c3)cn2)n1` [Example 293, (S)-N-(4-(3-aminopiperidin-1-yl)-5-(4-fluoro-3-(trifluoromethyl)phenyl)pyridin-2-yl)-2-(2-fluoro-6-methoxyphenyl)pyrimidin-4-amine hydrochloride] it was no more than 10 nM; in that of `COc1cccc(F)c1-c1nccc(Nc2cc(N3CCC[C@H](O)C3)c(-c3ccc(C4CCOCC4)cc3)cn2)n1` [Example 18, (S)-1-(2-((2-(2-fluoro-6-methoxyphenyl)pyrimidin-4-yl)amino)-5-(4-(tetrahydro-2H-pyran-4-yl)phenyl)pyridin-4-yl)piperidin-3-ol], no more than 10 nM; in that of `COc1cccc(F)c1-c1nccc(Nc2cc(N3CCC[C@H](N)C3)c(-c3ccc(N4CCCCC4)nc3)cn2)n1` [Example 120, (S)-4-(3-aminopiperidin-1-yl)-N-(2-(2-fluoro-6-methoxyphenyl)pyrimidin-4-yl)-6′-(piperidin-1-yl)-[3,3′-bipyridin]-6-amine hydrochloride], no more than 10 nM.

Values taken from patent US20260347338A1, “PYRIMIDINE/PYRIDINE DERIVATIVES OR SALTS THEREOF AND PHARMACEUTICAL COMPOSITIONS COMPRISING THE SAME” (YUHAN CORPORATION, priority 2023, published 2026).
